According to the supplement of paper PMC6045584:
± gives the standard deviation of the averaged measurements.

Tests used:
[1] = compound: T1, C=CC(=O)Nc1cc2c(Nc3ccc(F)c(Cl)c3)ncnc2cc1OCCCN1CCOCC1 [CANERTINIB]; test: surviving fraction relative to DMSO-only wells; higher = less growth inhibition; settings: exposure time: 5 days
Procedure, shortened: (§1)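 For each tumour cell line, log-phase cells were put into 384-well plates at 250–500 cells per well, then after 24 hours exposed continuously for five days to inhibitors at 0.5, 1, 5, 10, 50, 100, 500 and 1000 nM. Viability was assessed by CellTiter-Glo luminescence, with surviving fraction expressed relative to the median of DMSO-only wells. Lines were screened three times and retained only if replicate Pearson r exceeded 0.7 and median Z' exceeded 0.3.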

[2] = compound: Cn1cc(C2=Nc3cc(NC(=O)C(N)C4CCCCC4)cc4c3C2=CNNC4=O)cn1; test: as above; settings: exposure time: 5 days
Procedure, shortened: as §1

[3] = compound: T1, CANERTINIB; test: area under dose-response curve of surviving fraction (unscaled, Aref=0) (surviving fraction x log10(nM)); higher = more resistant; settings: exposure time: 5 days; dose range 0.5-1000 nM
Procedure, shortened: (§2)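 Three screens per tumour cell line were run in 384-well plates at eight inhibitor concentrations from 0.5 to 1000 nM over five days. Surviving fractions, from CellTiter-Glo luminescence normalised to DMSO-only wells, were fitted with 3-parameter logistic curves in the drc R package. The reported area under the curve is the unscaled activity area. It spans log10 dose, and Aref is 0.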

[4] = compound: CCCCCCCCCCCCCCCC(=O)Nc1ccn([C@@H]2O[C@H](CO)[C@@H](O)[C@@H]2C#N)c(=O)n1 [SAPACITABINE]; test: as above; settings: exposure time: 5 days; dose range 0.5-1000 nM
Procedure, shortened: as §2

[5] = compound: CC[C@@H]1C(=O)N(C)c2cnc(Nc3ccc(C(=O)NC4CCN(C)CC4)cc3OC)nc2N1C1CCCC1 [BI-2536]; test: as above; settings: exposure time: 5 days; dose range 0.5-1000 nM
Procedure, shortened: as §2

[6] = compound: CNC(=O)c1ccc(N2C(=S)N(c3ccc(C#N)c(C(F)(F)F)c3)C(=O)C2(C)C)cc1F [MDV3100]; test: as above; settings: exposure time: 5 days; dose range 0.5-1000 nM
Procedure, shortened: as §2

HCC1395 BREAST
surviving fraction ([1]; 0.5 nM): 0.955 ± 0.095
surviving fraction ([1]; 1 nM): 0.901 ± 0.022
surviving fraction ([1]; 5 nM): 1 ± 0.15
surviving fraction ([1]; 10 nM): 0.905 ± 0.059
surviving fraction ([1]; 50 nM): 1.13 ± 0.068
surviving fraction ([1]; 100 nM): 1.05 ± 0.021
surviving fraction ([1]; 500 nM): 1.06 ± 0.11
surviving fraction ([1]; 1000 nM): 1.01 ± 0.066
surviving fraction ([2]; 0.5 nM): 0.805 ± 0.1
surviving fraction ([2]; 1 nM): 0.961 ± 0.16
surviving fraction ([2]; 5 nM): 0.938 ± 0.13
surviving fraction ([2]; 10 nM): 0.975 ± 0.11
surviving fraction ([2]; 50 nM): 0.766 ± 0.071
surviving fraction ([2]; 100 nM): 0.68 ± 0.17
surviving fraction ([2]; 500 nM): 0.578 ± 0.088
surviving fraction ([2]; 1000 nM): 0.521 ± 0.065
area under dose-response curve [3]: 3.33
area under dose-response curve [4]: 2.91
area under dose-response curve [5]: 2.69
area under dose-response curve [6]: 3.87

NOS1 BONE
surviving fraction ([1]; 0.5 nM): 0.909 ± 0.16
surviving fraction ([1]; 1 nM): 0.939 ± 0.12
surviving fraction ([1]; 5 nM): 0.957 ± 0.094
surviving fraction ([1]; 10 nM): 1.04 ± 0.14
surviving fraction ([1]; 50 nM): 1.04 ± 0.11
surviving fraction ([1]; 100 nM): 1.1 ± 0.1
surviving fraction ([1]; 500 nM): 0.585 ± 0.052
surviving fraction ([1]; 1000 nM): 0.333 ± 0.02
surviving fraction ([2]; 0.5 nM): 1 ± 0.16
surviving fraction ([2]; 1 nM): 0.948 ± 0.081
surviving fraction ([2]; 5 nM): 1.11 ± 0.1
surviving fraction ([2]; 10 nM): 1.05 ± 0.1
surviving fraction ([2]; 50 nM): 0.813 ± 0.075
surviving fraction ([2]; 100 nM): 0.872 ± 0.064
surviving fraction ([2]; 500 nM): 0.339 ± 0.009
surviving fraction ([2]; 1000 nM): 0.195 ± 0.013
area under dose-response curve [3]: 3.08
area under dose-response curve [4]: 2.87
area under dose-response curve [5]: 1.35

MDAMB134 BREAST
surviving fraction ([1]; 0.5 nM): 0.622 ± 0.012
surviving fraction ([1]; 1 nM): 0.659 ± 0.074
surviving fraction ([1]; 5 nM): 0.562 ± 0.0064
surviving fraction ([1]; 10 nM): 0.577 ± 0.0092
surviving fraction ([1]; 50 nM): 0.767 ± 0.12
surviving fraction ([1]; 100 nM): 0.831 ± 0.022
surviving fraction ([1]; 500 nM): 0.868 ± 0.066
surviving fraction ([1]; 1000 nM): 0.718 ± 0.016
surviving fraction ([2]; 0.5 nM): 0.9005 ± 0.0064
surviving fraction ([2]; 1 nM): 0.987 ± 0.062
surviving fraction ([2]; 5 nM): 0.908 ± 0.092
surviving fraction ([2]; 10 nM): 0.855 ± 0.17
surviving fraction ([2]; 50 nM): 0.642 ± 0.067
surviving fraction ([2]; 100 nM): 0.525 ± 0.14
surviving fraction ([2]; 500 nM): 0.442 ± 0.033
surviving fraction ([2]; 1000 nM): 0.505 ± 0.018
area under dose-response curve [3]: 2.36
area under dose-response curve [4]: 2.57
area under dose-response curve [5]: 2.89

MDAMB453 BREAST
surviving fraction ([1]; 0.5 nM): 1.04 ± 0.026
surviving fraction ([1]; 1 nM): 1 ± 0.016
surviving fraction ([1]; 5 nM): 1.01 ± 0.058
surviving fraction ([1]; 10 nM): 1.01 ± 0.071
surviving fraction ([1]; 50 nM): 1.02 ± 0.047
surviving fraction ([1]; 100 nM): 1.07 ± 0.026
surviving fraction ([1]; 500 nM): 0.823 ± 0.0089
surviving fraction ([1]; 1000 nM): 0.637 ± 0.067
surviving fraction ([2]; 0.5 nM): 0.971 ± 0.011
surviving fraction ([2]; 1 nM): 1.01 ± 0.034
surviving fraction ([2]; 5 nM): 0.999 ± 0.026
surviving fraction ([2]; 10 nM): 1.01 ± 0.04
surviving fraction ([2]; 50 nM): 0.784 ± 0.044
surviving fraction ([2]; 100 nM): 0.293 ± 0.013
surviving fraction ([2]; 500 nM): 0.179 ± 0.019
surviving fraction ([2]; 1000 nM): 0.206 ± 0.011
area under dose-response curve [3]: 3.19
area under dose-response curve [4]: 3.1
area under dose-response curve [5]: 0.857
area under dose-response curve [6]: 3.16

ASKA SYNOVIAL
surviving fraction ([1]; 0.5 nM): 0.958 ± 0.03
surviving fraction ([1]; 1 nM): 0.93 ± 0.014
surviving fraction ([1]; 5 nM): 1.04 ± 0.024
surviving fraction ([1]; 10 nM): 0.917 ± 0.062
surviving fraction ([1]; 50 nM): 1.16 ± 0.077
surviving fraction ([1]; 100 nM): 1.09 ± 0.059
surviving fraction ([1]; 500 nM): 0.933 ± 0.1
surviving fraction ([1]; 1000 nM): 0.721 ± 0.047
surviving fraction ([2]; 0.5 nM): 0.985 ± 0.08
surviving fraction ([2]; 1 nM): 1 ± 0.075
surviving fraction ([2]; 5 nM): 0.98 ± 0.028
surviving fraction ([2]; 10 nM): 0.992 ± 0.048
surviving fraction ([2]; 50 nM): 0.65 ± 0.054
surviving fraction ([2]; 100 nM): 0.355 ± 0.028
surviving fraction ([2]; 500 nM): 0.174 ± 0.013
surviving fraction ([2]; 1000 nM): 0.229 ± 0.0066
area under dose-response curve [4]: 2.18
area under dose-response curve [5]: 1.04

93VU HEADNECK
surviving fraction ([1]; 0.5 nM): 0.784 ± 0.029
surviving fraction ([1]; 1 nM): 0.787 ± 0.065
surviving fraction ([1]; 5 nM): 0.86 ± 0.034
surviving fraction ([1]; 10 nM): 0.698 ± 0.042
surviving fraction ([1]; 50 nM): 1.07 ± 0.053
surviving fraction ([1]; 100 nM): 0.738 ± 0.062
surviving fraction ([1]; 500 nM): 0.63 ± 0.02
surviving fraction ([1]; 1000 nM): 0.312 ± 0.044
surviving fraction ([2]; 0.5 nM): 0.976 ± 0.077
surviving fraction ([2]; 1 nM): 1 ± 0.069
surviving fraction ([2]; 5 nM): 1.07 ± 0.02
surviving fraction ([2]; 10 nM): 1.09 ± 0.087
surviving fraction ([2]; 50 nM): 0.948 ± 0.033
surviving fraction ([2]; 100 nM): 0.945 ± 0.064
surviving fraction ([2]; 500 nM): 0.741 ± 0.044
surviving fraction ([2]; 1000 nM): 0.388 ± 0.05
area under dose-response curve [3]: 2.56
area under dose-response curve [4]: 2.69
area under dose-response curve [5]: 1.49
area under dose-response curve [6]: 3.11

HCC1954 BREAST
surviving fraction ([1]; 0.5 nM): 0.376 ± 0.025
surviving fraction ([1]; 1 nM): 0.336 ± 0.0092
surviving fraction ([1]; 5 nM): 0.382 ± 0.014
surviving fraction ([1]; 10 nM): 0.316 ± 0.014
surviving fraction ([1]; 50 nM): 0.263 ± 0.011
surviving fraction ([1]; 100 nM): 0.258 ± 0.015
surviving fraction ([1]; 500 nM): 0.136 ± 0.016
surviving fraction ([1]; 1000 nM): 0.117 ± 0.0071
surviving fraction ([2]; 0.5 nM): 0.772 ± 0.092
surviving fraction ([2]; 1 nM): 0.584 ± 0.042
surviving fraction ([2]; 5 nM): 0.927 ± 0.019
surviving fraction ([2]; 10 nM): 0.889 ± 0.035
surviving fraction ([2]; 50 nM): 0.571 ± 0.011
surviving fraction ([2]; 100 nM): 0.6015 ± 0.0014
surviving fraction ([2]; 500 nM): 0.1713 ± 0.0011
surviving fraction ([2]; 1000 nM): 0.0897 ± 0.0074
area under dose-response curve [3]: 0.92
area under dose-response curve [4]: 1.48
area under dose-response curve [5]: 1.92

S68 BREAST
surviving fraction ([1]; 0.5 nM): 0.642 ± 0.11
surviving fraction ([1]; 1 nM): 0.813 ± 0.21
surviving fraction ([1]; 5 nM): 0.748 ± 0.3
surviving fraction ([1]; 10 nM): 0.793 ± 0.04
surviving fraction ([1]; 50 nM): 1.04 ± 0.22
surviving fraction ([1]; 100 nM): 1.01 ± 0.12
surviving fraction ([1]; 500 nM): 0.636 ± 0.091
surviving fraction ([1]; 1000 nM): 0.425 ± 0.12
surviving fraction ([2]; 0.5 nM): 0.693 ± 0.42
surviving fraction ([2]; 1 nM): 1.17 ± 0.18
surviving fraction ([2]; 5 nM): 1.02 ± 0.12
surviving fraction ([2]; 10 nM): 0.901 ± 0.12
surviving fraction ([2]; 50 nM): 0.42 ± 0.048
surviving fraction ([2]; 100 nM): 0.345 ± 0.041
surviving fraction ([2]; 500 nM): 0.135 ± 0.012
surviving fraction ([2]; 1000 nM): 0.0897 ± 0.0071
area under dose-response curve [3]: 2.53
area under dose-response curve [4]: 1.85
area under dose-response curve [5]: 1.03
area under dose-response curve [6]: 3.58
